Values of other authors, collected in US20220370466A1, “REGIMENS FOR TREATING HIV INFECTIONS AND AIDS” (ViiV Healthcare Company, priority 2017, published 2022).
Like-named read-outs stand apart in the source and are kept apart here.

Experiments:
P-gp = P-gp (Homo sapiens, UniProt P08183); settings: in vitro
UGT1A1 = biological target: T1, UGT1A1 (Homo sapiens, UniProt P22309)
T1 sequence (P22309 26-533): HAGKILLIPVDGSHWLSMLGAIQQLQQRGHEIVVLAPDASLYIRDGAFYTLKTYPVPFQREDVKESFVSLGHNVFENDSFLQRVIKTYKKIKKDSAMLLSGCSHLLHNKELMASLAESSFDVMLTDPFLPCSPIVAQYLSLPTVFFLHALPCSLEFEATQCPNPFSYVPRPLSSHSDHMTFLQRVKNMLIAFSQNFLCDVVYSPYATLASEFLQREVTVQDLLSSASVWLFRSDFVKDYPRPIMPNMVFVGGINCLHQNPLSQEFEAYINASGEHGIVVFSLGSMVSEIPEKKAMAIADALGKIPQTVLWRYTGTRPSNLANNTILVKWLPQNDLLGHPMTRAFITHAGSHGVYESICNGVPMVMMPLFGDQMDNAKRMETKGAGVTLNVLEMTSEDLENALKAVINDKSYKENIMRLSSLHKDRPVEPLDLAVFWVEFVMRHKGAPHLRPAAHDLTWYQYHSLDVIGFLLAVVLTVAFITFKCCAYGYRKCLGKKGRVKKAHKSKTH

BCRP = biological target: T2, BCRP (Homo sapiens, UniProt Q9UNQ0); settings: in vitro
T2 sequence (Q9UNQ0 1-655): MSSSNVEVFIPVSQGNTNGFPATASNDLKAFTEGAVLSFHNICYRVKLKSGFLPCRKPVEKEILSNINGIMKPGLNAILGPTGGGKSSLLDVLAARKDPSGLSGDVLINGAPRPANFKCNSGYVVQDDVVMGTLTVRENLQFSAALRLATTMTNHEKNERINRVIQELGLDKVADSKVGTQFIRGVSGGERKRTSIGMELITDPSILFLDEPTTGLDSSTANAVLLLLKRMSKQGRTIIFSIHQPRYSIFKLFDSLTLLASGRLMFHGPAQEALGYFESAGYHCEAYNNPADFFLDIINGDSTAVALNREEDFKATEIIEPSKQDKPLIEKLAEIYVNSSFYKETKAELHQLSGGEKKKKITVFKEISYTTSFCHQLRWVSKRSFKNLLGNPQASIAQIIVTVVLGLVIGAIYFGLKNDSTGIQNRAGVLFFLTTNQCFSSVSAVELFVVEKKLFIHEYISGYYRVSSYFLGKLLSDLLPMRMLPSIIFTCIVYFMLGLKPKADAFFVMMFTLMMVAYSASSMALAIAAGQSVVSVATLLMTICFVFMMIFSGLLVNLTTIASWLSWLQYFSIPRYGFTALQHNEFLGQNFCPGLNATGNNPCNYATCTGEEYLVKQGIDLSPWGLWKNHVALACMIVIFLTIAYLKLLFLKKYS

CYP3A4 [1] = biological target: T3, CYP3A4 (Homo sapiens, UniProt P08684)
UGT1A3 = biological target: T4, UGT1A3 (Homo sapiens, UniProt P35503); settings: in vitro
T4 sequence (P35503 29-534): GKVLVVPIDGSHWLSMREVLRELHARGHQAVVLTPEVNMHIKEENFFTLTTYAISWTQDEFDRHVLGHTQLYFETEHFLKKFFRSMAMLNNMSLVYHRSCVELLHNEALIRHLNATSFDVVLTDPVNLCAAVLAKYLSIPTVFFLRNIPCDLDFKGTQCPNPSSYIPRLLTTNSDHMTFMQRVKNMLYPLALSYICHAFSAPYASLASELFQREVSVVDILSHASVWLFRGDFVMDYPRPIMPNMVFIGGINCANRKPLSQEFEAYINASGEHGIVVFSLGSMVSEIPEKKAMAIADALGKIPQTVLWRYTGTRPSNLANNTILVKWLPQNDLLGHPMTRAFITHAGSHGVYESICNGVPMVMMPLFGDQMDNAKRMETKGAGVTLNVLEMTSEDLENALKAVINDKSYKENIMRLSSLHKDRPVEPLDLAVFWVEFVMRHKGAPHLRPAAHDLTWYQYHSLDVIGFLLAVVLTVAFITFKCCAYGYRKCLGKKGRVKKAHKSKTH

UGT1A9 = biological target: T5, UGT1A9 (Homo sapiens, UniProt O60656); settings: in vitro
T5 sequence (O60656 26-530): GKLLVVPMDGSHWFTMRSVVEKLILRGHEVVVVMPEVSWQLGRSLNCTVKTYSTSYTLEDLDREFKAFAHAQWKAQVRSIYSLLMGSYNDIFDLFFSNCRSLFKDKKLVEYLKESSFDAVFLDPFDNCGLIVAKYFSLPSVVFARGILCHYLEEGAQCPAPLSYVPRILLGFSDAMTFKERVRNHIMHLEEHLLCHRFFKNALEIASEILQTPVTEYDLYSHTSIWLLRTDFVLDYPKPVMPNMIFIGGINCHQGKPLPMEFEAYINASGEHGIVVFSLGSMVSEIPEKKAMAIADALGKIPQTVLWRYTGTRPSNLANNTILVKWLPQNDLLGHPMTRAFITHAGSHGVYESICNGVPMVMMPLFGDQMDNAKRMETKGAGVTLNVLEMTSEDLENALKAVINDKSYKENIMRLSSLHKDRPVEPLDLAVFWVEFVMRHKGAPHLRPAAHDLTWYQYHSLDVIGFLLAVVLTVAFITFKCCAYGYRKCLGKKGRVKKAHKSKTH

HIV [2] = settings: CD4+ T-cells isolated from thirteen (13) persons
HIV [3] = settings: monocyte-derived macrophages (MDMs)
[4] = test system: cytochrome P450 (CYP) isozymes
CYP3A4 [5] = biological target: T3, CYP3A4; remark: listed apart in the source
HIV-1 = settings: lymphoblastoid cell lines, MAGI-CCR5 cell line, peripheral blood mononuclear cells

T3 sequence (P08684 whole entry): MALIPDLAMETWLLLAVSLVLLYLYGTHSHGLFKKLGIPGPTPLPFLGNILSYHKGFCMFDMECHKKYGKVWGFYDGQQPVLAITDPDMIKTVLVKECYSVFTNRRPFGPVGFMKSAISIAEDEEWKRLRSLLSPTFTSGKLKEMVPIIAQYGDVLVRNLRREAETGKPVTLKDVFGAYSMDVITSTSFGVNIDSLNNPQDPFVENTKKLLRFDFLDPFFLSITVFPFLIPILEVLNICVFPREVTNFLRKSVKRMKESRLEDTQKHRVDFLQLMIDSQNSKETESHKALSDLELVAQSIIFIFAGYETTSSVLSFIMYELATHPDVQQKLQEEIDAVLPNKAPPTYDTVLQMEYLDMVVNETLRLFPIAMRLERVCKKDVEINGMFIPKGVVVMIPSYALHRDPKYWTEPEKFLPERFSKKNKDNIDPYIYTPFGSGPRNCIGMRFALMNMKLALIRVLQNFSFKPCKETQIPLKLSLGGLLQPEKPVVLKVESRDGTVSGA
Chain of P-gp (P08183 whole entry): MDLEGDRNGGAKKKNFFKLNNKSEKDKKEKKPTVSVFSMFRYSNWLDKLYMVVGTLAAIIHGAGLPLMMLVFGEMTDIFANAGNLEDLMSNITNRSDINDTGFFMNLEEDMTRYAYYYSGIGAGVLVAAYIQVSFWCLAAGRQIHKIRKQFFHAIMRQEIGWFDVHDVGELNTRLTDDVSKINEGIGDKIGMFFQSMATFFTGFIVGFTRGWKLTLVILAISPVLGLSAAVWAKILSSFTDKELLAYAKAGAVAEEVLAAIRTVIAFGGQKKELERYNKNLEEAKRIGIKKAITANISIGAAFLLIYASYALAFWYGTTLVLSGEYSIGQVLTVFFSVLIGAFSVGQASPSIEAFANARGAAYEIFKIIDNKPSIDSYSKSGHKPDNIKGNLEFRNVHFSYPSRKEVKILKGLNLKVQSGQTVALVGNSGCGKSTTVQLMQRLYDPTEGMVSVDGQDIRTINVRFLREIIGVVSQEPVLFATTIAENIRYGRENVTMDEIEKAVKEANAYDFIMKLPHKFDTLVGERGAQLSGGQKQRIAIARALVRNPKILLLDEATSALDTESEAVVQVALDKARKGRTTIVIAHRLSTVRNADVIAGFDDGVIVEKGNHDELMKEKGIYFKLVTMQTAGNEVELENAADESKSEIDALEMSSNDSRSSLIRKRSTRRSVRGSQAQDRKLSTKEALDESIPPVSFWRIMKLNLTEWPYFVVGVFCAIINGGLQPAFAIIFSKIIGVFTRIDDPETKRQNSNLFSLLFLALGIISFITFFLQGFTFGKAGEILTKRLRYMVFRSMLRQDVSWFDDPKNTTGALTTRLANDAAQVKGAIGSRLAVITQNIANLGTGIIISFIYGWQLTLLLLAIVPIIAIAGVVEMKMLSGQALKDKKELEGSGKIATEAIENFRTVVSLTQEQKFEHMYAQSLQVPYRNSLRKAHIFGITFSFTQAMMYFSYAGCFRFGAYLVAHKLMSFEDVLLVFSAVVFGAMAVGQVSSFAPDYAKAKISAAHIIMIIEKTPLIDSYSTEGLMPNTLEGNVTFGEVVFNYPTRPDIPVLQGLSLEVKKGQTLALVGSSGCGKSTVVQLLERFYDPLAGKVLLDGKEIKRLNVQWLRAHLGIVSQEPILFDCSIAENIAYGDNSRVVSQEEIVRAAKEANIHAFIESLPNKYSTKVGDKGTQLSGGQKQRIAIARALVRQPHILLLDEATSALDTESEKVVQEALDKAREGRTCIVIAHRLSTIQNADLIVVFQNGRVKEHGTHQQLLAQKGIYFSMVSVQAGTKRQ

Compound: O=C(NCc1c(F)cc(F)cc1F)c1cn2c(c(O)c1=O)C(=O)N1[C@H]3CC[C@H](C3)O[C@@H]1C2 [Bictegravir, (2R,5S,13aR)-8-hidroxi-7,9-dioxo-N-[(2,4,6-trifluorofenil)metil]-2,3,4,5,7,9,13,13a-octahidro-2,5-metanopirido[1′,2′: 4,5]pirazino[2,1-b][1,3]oxazepina-10-carboxamida]
- substrate of P-gp (P-gp): substrate
- metabolic clearance through UGT1A1 (UGT1A1): metabolically cleared
- substrate of BCRP (BCRP): substrate
- metabolic clearance through CYP3A4 (CYP3A4 [1]): metabolically cleared
- substrate of UGT1A3 (UGT1A3): substrate
- substrate of UGT1A9 (UGT1A9): substrate

Compound: CC(C)OC(=O)[C@H](C)N[P@](=O)(CO[C@H](C)Cn1cnc2c(N)ncnc21)Oc1ccccc1 [TAF, L-alanine, N-[(S)-[[(1R)-2-(6-amino-9H-purin-9-yl)-1methylethoxy]methyl]phenoxyphosphinyl]-, 1-methylethyl ester, (2E)-2-butenedioate (2:1)]
- EC50 (HIV [2]; read-out: mean EC50): 11 nM
- EC50 (HIV [2]; read-out: median EC50): 10.2 nM
- EC50 (HIV [3]; read-out: mean EC50): 9.7 nM
- EC50 (HIV [3]; read-out: median EC50): 10.3 nM

Compound: C[C@@H]1CCO[C@H]2Cn3cc(C(=O)NCc4ccc(F)cc4F)c(=O)c(O)c3C(=O)N12 [Dolutegravir, (4R,12a5)-N-[(2,4-difluorophenyl)methyl]-7-hydroxy-4-methyl-6,8-dioxo-3 ,4,12,12a-tetrahydro-2H-pyrido[5, 6]pyrazino[2,6-b][1,3]oxazine-9-carboxamide]
- induction or inhibition of cytochrome P450 (CYP) isozymes [4]: demonstrates induction or inhibition
- extent to which the drug is a substrate of CYP3A4 (CYP3A4 [5]): about 15%

Compound: Nc1nc(=O)n([C@@H]2CS[C@H](CO)O2)cc1F [Emtricitabine, 5-fluoro-1-(2R,5S)-[2-(hydroxymethyl)-1,3oxathiolan-5-yl]cytosine]
- EC50 value against HIV-1 (HIV-1): 3 to 158 ng/mL
- EC50 (HIV-1; read-out: EC50 value against HIV-1): 1.3 to 640 nM
